Reference: patent publication US8338473B2, “Derivatives of psammaplin A, a method for their synthesis and their uses for the prevention or treatment of cancer” (Centre National de la Recherche Scientifique, priority 2007, dated 2012)
Read-outs that look alike come from different tables or passages of the source.

What was measured:
[1] = molecular target: HDAC4 (Homo sapiens, UniProt P56524); assay: HDAC4 enzymatic assay (IP-HDAC4, 3H-acetyl release); type: biochemical; conditions: IP-HDAC4 incubated with inhibitor 24 hrs
HDAC4, sequence (P56524 whole entry, species assumed): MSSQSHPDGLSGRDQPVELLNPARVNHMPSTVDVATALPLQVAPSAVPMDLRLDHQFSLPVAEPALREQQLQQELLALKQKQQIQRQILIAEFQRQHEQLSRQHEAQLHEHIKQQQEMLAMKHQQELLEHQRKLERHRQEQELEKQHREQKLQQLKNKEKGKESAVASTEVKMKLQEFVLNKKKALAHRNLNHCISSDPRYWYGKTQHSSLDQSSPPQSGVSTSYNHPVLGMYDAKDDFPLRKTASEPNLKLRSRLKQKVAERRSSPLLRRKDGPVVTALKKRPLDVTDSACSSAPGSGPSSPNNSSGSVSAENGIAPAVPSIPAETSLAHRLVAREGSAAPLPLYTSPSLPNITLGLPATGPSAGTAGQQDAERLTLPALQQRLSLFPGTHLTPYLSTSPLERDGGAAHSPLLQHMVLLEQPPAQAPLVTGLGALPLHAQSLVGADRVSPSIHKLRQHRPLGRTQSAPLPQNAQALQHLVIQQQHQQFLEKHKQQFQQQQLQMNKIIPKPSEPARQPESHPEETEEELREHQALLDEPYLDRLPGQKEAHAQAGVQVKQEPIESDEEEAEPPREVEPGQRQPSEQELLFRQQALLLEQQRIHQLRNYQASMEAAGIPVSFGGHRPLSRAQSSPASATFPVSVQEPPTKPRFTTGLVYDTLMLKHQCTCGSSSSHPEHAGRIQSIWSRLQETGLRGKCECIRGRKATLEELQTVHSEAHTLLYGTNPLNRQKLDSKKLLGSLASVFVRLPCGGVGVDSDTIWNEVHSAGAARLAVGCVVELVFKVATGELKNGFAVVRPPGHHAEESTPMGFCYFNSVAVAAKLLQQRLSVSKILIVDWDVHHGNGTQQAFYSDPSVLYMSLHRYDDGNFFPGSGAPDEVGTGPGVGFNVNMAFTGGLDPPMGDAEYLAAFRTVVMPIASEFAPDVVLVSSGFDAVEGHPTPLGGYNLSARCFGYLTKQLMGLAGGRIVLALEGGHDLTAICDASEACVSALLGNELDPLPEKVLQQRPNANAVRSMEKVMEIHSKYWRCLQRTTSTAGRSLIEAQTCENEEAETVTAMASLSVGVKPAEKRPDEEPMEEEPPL
HDAC4, sequence (O15379 whole entry partner, species assumed): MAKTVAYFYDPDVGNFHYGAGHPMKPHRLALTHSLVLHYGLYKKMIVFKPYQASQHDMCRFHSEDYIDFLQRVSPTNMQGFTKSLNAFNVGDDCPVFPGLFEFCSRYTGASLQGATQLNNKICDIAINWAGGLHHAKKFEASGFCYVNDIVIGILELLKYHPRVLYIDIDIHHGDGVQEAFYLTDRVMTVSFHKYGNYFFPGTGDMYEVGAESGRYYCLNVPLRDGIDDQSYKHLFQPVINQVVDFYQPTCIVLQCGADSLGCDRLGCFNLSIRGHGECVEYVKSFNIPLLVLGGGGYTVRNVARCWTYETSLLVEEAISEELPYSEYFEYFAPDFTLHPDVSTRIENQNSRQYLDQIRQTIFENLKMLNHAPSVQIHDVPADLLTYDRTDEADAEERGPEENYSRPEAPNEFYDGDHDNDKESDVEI
Method: (§1) FIG. 1: a) Cell cycle analysis of U937 cells treated for 30 hrs with the indicated compounds used at 1 and 5 μM; b) Caspase 3 apoptotic assay of the indicated compounds after 24 hrs of treatment in the U937 cells; c) Tubulin acetylation and p21 expression levels at 6 and 16 hrs after treatment with the indicated compounds; total tubulin expression levels are used for equal loading; d) Histone H3 acetylation and K9 H3 methylation expression levels at 6 and 16 hrs after treatment with the indicated compounds; total tubulin expression levels are used for equal loading; e) K9, K14, K18 histone H3 acetylation expression levels at 6 and 16 hrs after treatment with the indicated compounds; total ERKs expression levels are used for equal loading; f) HDAC1 enzymatic assay: IP-HDAC1 is incubated with the indicated inhibitors for 24 Hrs; activity is measured as ^3H-acetyl release; g) HDAC4 enzymatic assay: IP-HDAC4 is incubated with the indicated inhibitors for 24 hrs; activity is measured as ^3H-acetyl release.

[2] = tested on: prostate cancer cells (LnCap); assay: Anti-proliferative and apoptogenic action in prostate cancer cells; type: cell-based; conditions: data not shown
[3] = tested on: p21WAF1/CIP1; assay: p21 expression, Western blot in U937 cells; type: cell-based, human; conditions: U937, 6 and 16 hrs
Method: as §1
FIG. 3: a) Cell cycle and apoptosis analysis carried out in U937 cells after 24 hrs with the indicated compounds; values are media of independent triplicates; b) CD11c expression analysis carried out in U937 cells with the indicated compounds; values are media of independent duplicates; c) Tubuline acetylation and p21 expression levels in U937 cells after 24 hrs with the indicated treatments; total ERKs expression levels are used for equal loading; d) acetylation of histone H3 under the conditions indicated in (c).
For the determination of p21^WAF1/CIP1 and p16^INK4 100 μg of total protein extracts were separated on a 15% polyacrylammide gels and blotted. Western blots were shown for p21 (Transduction Laboratories, dilution 1:500), p16 (Santa Cruz) and total ERKs (Santa Cruz) were used to normalise for equal loading. For alpha-tubulin acetylation 25 μg of total protein extracts were separated on a 10% polyacrylamide gels and blotted. […]

[4] = tested on: p53; assay: p53 acetylation in MCF7 cells (Western blot); type: cell-based, human; conditions: MCF7, 6 hrs, co-treatment with Etoposide 25 μM
Method: FIG. 13B: western blot of MCF7 cells treated with etoposide alone or in presence of sirtinol (a known SIRT2 inhibitor) and with uvi5008 concentrations of 50 μM and 5 μM.
MCF7 cells (human breast cancer cells) have been growth following standard procedure and have been treated for 6 hrs with the indicated compounds in presence of 25 μM Etoposide. Total protein extracts have been run on SDS gel and blotted. Western Blot has been carried out by using the anti p53 ac382 (Abcam) following standard procedures. ERKs (Santa Cruz) have been used for equal loading control.

[5] = tested on: p16INK4a; assay: p16 expression levels in U937 cells; type: cell-based, human; conditions: U937, 24 hrs
Method: FIG. 2: a) Methylation specific PCR for the RARβ gene after 16 and 24 hrs of treatment with the indicated compounds; b) Methylation specific PCR for the p16 gene after 24 hrs of the indicated treatments. Samples are representative of real duplicates; c) p16 expression levels in U937 cells after 24 hrs with the indicated treatments; d) DNMT enzymatic in vitro assay carried out with 1.5 and 50 μM of the indicated compounds;
(§2) For the determination of p21^WAF1/CIP1 and p16^INK4 100 μg of total protein extracts were separated on a 15% polyacrylammide gels and blotted. Western blots were shown for p21 (Transduction Laboratories, dilution 1:500), p16 (Santa Cruz) and total ERKs (Santa Cruz) were used to normalise for equal loading. For alpha-tubulin acetylation 25 μg of total protein extracts were separated on a 10% polyacrylamide gels and blotted. Western blots were shown for acetylated alpha-tubulin (Sigma, dilution 1:500) and total ERKs (Santa Cruz) or total tubulin (Sigma) were used to normalise for equal loading.

[6] = tested on: histone H3; assay: Histone H3 acetylation and K9 H3 methylation levels in U937 cells; type: cell-based, human; conditions: U937, 6 and 16 hrs
Method: as §1, §2

[7] = tested on: TRAIL; assay: TRAIL expression (RT-PCR and ELISA) in U937 cells; type: cell-based, human; conditions: protein after 24 hrs
Method: (§3) FIG. 5: a) Analysis of the histone H3 acetylation levels on the TRAIL promoter regulatory region and on the TRAIL gene first intron carried out Chip and qPCR in U937 cells after the indicated time course with UVI5008; the ‘NoAb’ represents the negative control; b) TRAIL mRNA expression after the indicated times of incubation with UVI5008; G6PDH levels have been used for equal loading; c) TRAIL protein expression levels measured by ELISA assay in U937 cells after 24 hrs treatment with UVI5008.

[8] = tested on: TRAIL promoter; assay: Histone H3 acetylation at the TRAIL locus (Chip and qPCR) in U937 cells; type: cell-based, human; conditions: U937, time course
Method: as §3

[9] = tested on: HCT-116 colon carcinoma cells xenografted in immunoincompetent mice; conditions: for Normalised tumour weight: mean of n = 10

## O=C(NCCSSCCNC(=O)C(Cc1c[nH]c2ccc(Br)cc12)=NO)C(Cc1c[nH]c2ccc(Br)cc12)=NO [UVI5008]
[1]
  HDAC4 deacetylase activity inhibition: nearly completely blocked
[2]
  anti-proliferative and apoptogenic action: confirmed
[3]
  expression of p21WAF1/CIP1: dramatically increased
[4]
  p53 acetylation levels (readout of SIRT inhibition): hyperacetylation
[5]
  p16INK4a gene expression: de-silenced
[6]
  H3K9, H3K14 and H3K18 acetylations: all increased
  global histone H3 acetylation: dramatically enhanced
  methylation of H3K9: decreased
[7]
  TRAIL expression at mRNA and protein levels: increased expression
[8]
  H3K9 acetylation of the chromatin at the TRAIL promoter: rapid dramatic H3K9 acetylation
[9]; 40 mg/kg i.p. every second day
  Percent Growth Inhibition after 22 days: 56 ± 7%
  animals with signs of toxicity (accumulation of intra peritoneal fluid): 3 animals out of 10
[9]; day 1, 40 mg/kg i.p. every second day
  Normalised tumour weight: 100 ± 21.5 mg
[9]; day 4, 40 mg/kg i.p. every second day
  Normalised tumour weight: 180.55 ± 43 mg
[9]; day 12, 40 mg/kg i.p. every second day
  Normalised tumour weight: 548.73 ± 109.8 mg
[9]; day 17, 40 mg/kg i.p. every second day
  Normalised tumour weight: 915.28 ± 196.8 mg
[9]; day 22, 40 mg/kg i.p. every second day
  Normalised tumour weight: 1684.79 ± 262.1 mg
[9]; each compound at its MTD
  anti tumoral activity compared with the reference compounds: greater anti tumoral activity with respect to SAHA and MS-275
